Measured values taken from patent US20100184596A1, “METHOD FOR THE CONTROL OF WEEDS IN TURF” (SYNGENTA CROP PROTECTION, INC., priority 2007, published 2010).

Assays:
Type in all cases: in vivo
[1] = test system: St. Augustinegrass v. Delmar; assay: Phytotoxicity via granule application (Table B3.1); details: Spray
Zoysiagrass v. Meyer = assay: Phytotoxicity via post emergence spray application (Table B2.2)
Protocol: The phytotoxicity of the compound of formula I to turfgrass species was tested. The compound was applied via post emergence spray to a range of warm and cool season turfgrass species at various rates and spray treatment treatment regimes. Percentage phytotoxicity assessments were taken at various timepoints.

[2] = test system: Bermudagrass v. Tifway 419; assay: Phytotoxicity via granule application (Table B3.2)

How did the “% phytotoxicity” value ([1]; 112 g ai/ha, 15 DAT) turn out when `COCCOCc1nc(C(F)(F)F)ccc1C(=O)C1=C(O)C2CCC(C2)C1=O` (stereo not shown) [Formula I, 4-Hydroxy-3-[2-(2-methoxyethoxymethyl)-6-trifluoromethylpyridine-3-carbonyl]-bicyclo[3.2.1]oct-3-en-2-one] was run?
The value was 9.30%.

What about the “% phytotoxicity” value ([1]; 112 g ai/ha, 20 DAT) of the same molecule?
Its value is 4.00%.

What about the “% phytotoxicity” value ([1]; 112 g ai/ha, 28 DAT) of the same molecule?
Its value is 0.00%.

What about the “% phytotoxicity” value ([1]; 280 g ai/ha, 7 DAT) of the same molecule?
Its value is 60.00%.

What about the “% phytotoxicity” value ([1]; 280 g ai/ha, 11 DAT) of the same molecule?
Its value is 43.30%.

What about the “% phytotoxicity” value ([1]; 280 g ai/ha, 15 DAT) of the same molecule?
Its value is 20.00%.

What about the “% phytotoxicity” value ([1]; 280 g ai/ha, 20 DAT) of the same molecule?
The value was 10.00%.

And the “% phytotoxicity” value ([1]; 280 g ai/ha, 28 DAT)?
The value was 3.30%.

And the “% phytotoxicity” value (Zoysiagrass v. Meyer; 1 appl, 140 g ai/ha, 8 DAT)?
The value was 42.50%.

What about the “% phytotoxicity” value (Zoysiagrass v. Meyer; 1 appl, 140 g ai/ha, 14 DAT) of the same molecule?
The value was 51.25%.

And the “% phytotoxicity” value (Zoysiagrass v. Meyer; 1 appl, 140 g ai/ha, 29 DAT)?
The value was 41.25%.

What about the “% phytotoxicity” value (Zoysiagrass v. Meyer; 1 appl, 140 g ai/ha, 35 DAT) of the same molecule?
The value was 25.00%.

And the “% phytotoxicity” value (Zoysiagrass v. Meyer; 1 appl, 140 g ai/ha, 43 DAT)?
Its value is 7.50%.

What about the “% phytotoxicity” value (Zoysiagrass v. Meyer; 1 appl, 140 g ai/ha, 51 DAT) of the same molecule?
Its value is 5.00%.

And the “% phytotoxicity” value (Zoysiagrass v. Meyer; 1 appl, 140 g ai/ha, 60 DAT)?
Its value is 0.00%.

And the “% phytotoxicity” value (Zoysiagrass v. Meyer; 1 appl, 280 g ai/ha, 8 DAT)?
Its value is 45.00%.

And the “% phytotoxicity” value (Zoysiagrass v. Meyer; 1 appl, 280 g ai/ha, 14 DAT)?
The value was 57.50%.

And the “% phytotoxicity” value (Zoysiagrass v. Meyer; 1 appl, 280 g ai/ha, 29 DAT)?
Its value is 61.25%.

And the “% phytotoxicity” value (Zoysiagrass v. Meyer; 1 appl, 280 g ai/ha, 35 DAT)?
Its value is 28.75%.

What about the “% phytotoxicity” value (Zoysiagrass v. Meyer; 1 appl, 280 g ai/ha, 43 DAT) of the same molecule?
The value was 8.75%.

And the “% phytotoxicity” value (Zoysiagrass v. Meyer; 1 appl, 280 g ai/ha, 51 DAT)?
The value was 3.75%.

And the “% phytotoxicity” value (Zoysiagrass v. Meyer; 1 appl, 280 g ai/ha, 60 DAT)?
The value was 0.00%.

And the “% phytotoxicity” value (Zoysiagrass v. Meyer; 2 appl, 140 g ai/ha, 8 DAT)?
Its value is 33.75%.

And the “% phytotoxicity” value (Zoysiagrass v. Meyer; 2 appl, 140 g ai/ha, 14 DAT)?
The value was 47.50%.

What about the “% phytotoxicity” value (Zoysiagrass v. Meyer; 2 appl, 140 g ai/ha, 29 DAT) of the same molecule?
The value was 17.50%.

What about the “% phytotoxicity” value (Zoysiagrass v. Meyer; 2 appl, 140 g ai/ha, 35 DAT) of the same molecule?
The value was 43.75%.

And the “% phytotoxicity” value (Zoysiagrass v. Meyer; 2 appl, 140 g ai/ha, 43 DAT)?
The value was 27.50%.

And the “% phytotoxicity” value (Zoysiagrass v. Meyer; 2 appl, 140 g ai/ha, 51 DAT)?
Its value is 8.75%.

And the “% phytotoxicity” value (Zoysiagrass v. Meyer; 2 appl, 140 g ai/ha, 60 DAT)?
The value was 0.00%.

And the “% phytotoxicity” value (Zoysiagrass v. Meyer; 2 appl, 280 g ai/ha, 8 DAT)?
The value was 38.75%.

And the “% phytotoxicity” value (Zoysiagrass v. Meyer; 2 appl, 280 g ai/ha, 14 DAT)?
The value was 57.50%.

And the “% phytotoxicity” value (Zoysiagrass v. Meyer; 2 appl, 280 g ai/ha, 29 DAT)?
The value was 52.50%.

What about the “% phytotoxicity” value (Zoysiagrass v. Meyer; 2 appl, 280 g ai/ha, 35 DAT) of the same molecule?
Its value is 47.50%.

What about the “% phytotoxicity” value (Zoysiagrass v. Meyer; 2 appl, 280 g ai/ha, 43 DAT) of the same molecule?
The value was 28.75%.

And the “% phytotoxicity” value (Zoysiagrass v. Meyer; 2 appl, 280 g ai/ha, 51 DAT)?
The value was 12.50%.

And the “% phytotoxicity” value (Zoysiagrass v. Meyer; 2 appl, 280 g ai/ha, 60 DAT)?
The value was 0.00%.

What about the “% phytotoxicity” value ([2]; Granule A (inert), 112 g ai/ha, 15 DAT) of the same molecule?
Its value is 0.00%.

And the “% phytotoxicity” value ([2]; Granule A (inert), 112 g ai/ha, 20 DAT)?
The value was 0.00%.

And the “% phytotoxicity” value ([2]; Granule A (inert), 112 g ai/ha, 28 DAT)?
Its value is 0.00%.

What about the “% phytotoxicity” value ([2]; Granule A (inert), 280 g ai/ha, 28 DAT) of the same molecule?
The value was 0.00%.

What about the “% phytotoxicity” value ([2]; Granule B (fertiliser), 112 g ai/ha, 11 DAT) of the same molecule?
Its value is 4.00%.

And the “% phytotoxicity” value ([2]; Granule B (fertiliser), 112 g ai/ha, 15 DAT)?
The value was 0.00%.

And the “% phytotoxicity” value ([2]; Granule B (fertiliser), 112 g ai/ha, 20 DAT)?
The value was 0.00%.

What about the “% phytotoxicity” value ([2]; Granule B (fertiliser), 112 g ai/ha, 28 DAT) of the same molecule?
Its value is 0.00%.

And the “% phytotoxicity” value ([2]; Granule B (fertiliser), 280 g ai/ha, 11 DAT)?
Its value is 15.00%.

And the “% phytotoxicity” value ([2]; Granule B (fertiliser), 280 g ai/ha, 15 DAT)?
The value was 3.30%.

And the “% phytotoxicity” value ([2]; Granule B (fertiliser), 280 g ai/ha, 20 DAT)?
Its value is 1.30%.

And the “% phytotoxicity” value ([2]; Granule B (fertiliser), 280 g ai/ha, 28 DAT)?
Its value is 0.00%.

And the “% phytotoxicity” value ([2]; Spray, 112 g ai/ha, 7 DAT)?
The value was 30.00%.

And the “% phytotoxicity” value ([2]; Spray, 112 g ai/ha, 11 DAT)?
The value was 18.30%.

And the “% phytotoxicity” value ([2]; Spray, 112 g ai/ha, 15 DAT)?
Its value is 10.00%.

And the “% phytotoxicity” value ([2]; Spray, 112 g ai/ha, 20 DAT)?
Its value is 3.00%.

What about the “% phytotoxicity” value ([2]; Spray, 112 g ai/ha, 28 DAT) of the same molecule?
Its value is 0.00%.

And the “% phytotoxicity” value ([2]; Spray, 280 g ai/ha, 7 DAT)?
The value was 66.70%.

And the “% phytotoxicity” value ([2]; Spray, 280 g ai/ha, 11 DAT)?
The value was 25.00%.

What about the “% phytotoxicity” value ([2]; Spray, 280 g ai/ha, 15 DAT) of the same molecule?
Its value is 10.00%.

And the “% phytotoxicity” value ([2]; Spray, 280 g ai/ha, 20 DAT)?
The value was 6.00%.

And the “% phytotoxicity” value ([2]; Spray, 280 g ai/ha, 28 DAT)?
Its value is 0.00%.
